Laboratory results as given in publication PMC4847728 (ACS chemical biology, 2015).
Values after ≈ are worked out from the molar mass of the structure shown.

Columns and labels:
[1] = test system: Enterococcus faecium ATCC 12952 (VRE); assay: MIC, liquid microdilution, VRE; assay type: cell-based; settings: 18 h, 37 °C
Bacillus sp. ATCC 27859 = assay: MIC, liquid microdilution, Bacillus; assay type: cell-based; settings: 18 h, 37 °C
[2] = test system: Staphylococcus aureus ATCC 10537 (MRSA); assay: MIC, liquid microdilution, MRSA; assay type: cell-based; settings: 18 h, 37 °C
[3] = test system: in vitro protein synthesis (E. coli S30 Extract System); assay: In vitro transcription-translation coupled assay; assay type: biochemical; settings: read-out: IC50, in vitro translation inhibition, pBESTLuc template, 37 °C, 1 h, triplicate

**Q.** What does the source list for C=C(NC(=O)C(=C)NC(=O)c1csc(C2=N[C@@H]3c4csc(n4)[C@H]4NC(=O)c5csc(n5)[C@H]([C@](C)(O)[C@@H](C)O)NC(=O)[C@H]5CSC(=N5)/C(=C/C)NC(=O)[C@H]([C@@H](C)O)NC(=O)c5csc(n5)[C@]3(CC2)NC(=O)[C@H](C)NC(=O)C(=C)NC(=O)[C@H](C)NC(=O)[C@H]([C@@H](C)CC)N[C@@H]2C=Cc3c([C@H](C)O)cc(nc3[C@H]2O)C(=O)O[C@@H]4C)n1)C(N)=O [Thiostrepton A, thiostrepton A]?
**A.** MIC VRE [1]: 0.012 µg/mL (≈ 7.21 nM); MIC Bacillus (Bacillus sp. ATCC 27859): 0.025 µg/mL (≈ 15 nM); MIC MRSA [2]: 0.012 µg/mL (≈ 7.21 nM); IC50 [3]: 630 ± 10 nM
